Assays:
Assay type in all cases: physicochemical
[1] = Example 2: solubility of sertaconazole nitrate in solubilizers, macroscopic
Experimental: Mixtures of 2 wt.-% sertaconazole nitrate and 98 wt.-% of solubilizers were prepared and shaken for 24 h at 150 rpm and at room temperature. Subsequently, the samples were macroscopically examined by evaluating the amount and appearance of the sediment.

[2] = Example 3: solubility of sertaconazole nitrate in mixtures of solvent and solubilizer
Experimental: Mixtures of 2 wt.-% sertaconazole nitrate and 98 wt.-% of a mixture of solvent and solubilizers (the amount of solubilizer with respect to the total mixture of sertaconazole nitrate, solvent and solubilizer is indicated in the subsequent table) were prepared and shaken for 24 h at 150 rpm and at room temperature. Subsequently, the samples were macroscopically examined by evaluating the amount and appearance of the sediment.

[3] = Example 1: solubility of sertaconazole nitrate in solvents, macroscopic
Experimental: Mixtures of 2 wt.-% sertaconazole nitrate and 98 wt.-% of solvents were prepared and shaken for 24 h at 150 rpm and at room temperature. Subsequently, the samples were macroscopically examined by evaluating the amount and appearance of the sediment.

## Clc1ccc(C(Cn2ccnc2)OCc2csc3c(Cl)cccc23)c(Cl)c1 (centres unmarked) [sertaconazole nitrate]
[1]; 2 wt.-% in 98 wt.-% solubilizer, 24 h, room temperature, trend from dimethylphthalate to macrogol 400
  solubility: Increasing from dimethylphthalate to macrogol 400
[1]; Dimethylphthalate
  appearance: Milky mixture with sediment
[1]; Glycerine (cell below, Marcogol 300, empty, possibly merged)
  appearance: Clear solution with sediment
[1]; Polyglycol M350 (cells below, propylene glycol, transcutol, macrogol 400, empty, possibly merged)
  appearance: Dissolved
[2]; Butyl acetate + Macrogol 400 10-30 wt.-%
  amount and appearance of the sediment: Sediment, no change observed by increasing amount of macrogol 400
[2]; Butyl acetate + Polyglycol M350 10-30 wt.-%
  amount and appearance of the sediment: White powdery sediment, no change observed by increas-ing amount of polyglycol M350
[2]; Butyl acetate + Propylene glycol 10-30 wt.-%
  amount and appearance of the sediment: Clear decrease of sediment with increase of propylene gly-col
[2]; Butyl acetate + Transcutol 10-30 wt.-%
  amount and appearance of the sediment: Sediment, no change observed by increasing amount of transcutol
[2]; Butyl acetate + Water 10-30 wt.-%
  amount and appearance of the sediment: Sediment (partially powdery white), increase of sediment with increasing amount of water
[2]; Ethanol + Dimethylphthalate 10-30 wt.-%
  amount and appearance of the sediment: Sediment (slightly crystalline), minimal decrease of sedi-ment with increasing of amount of dimethylphthalate
[2]; Ethanol + Macrogol 400 10 wt.-%
  amount and appearance of the sediment: Minimal crystal-line sediment
[2]; Ethanol + Macrogol 400 20 wt.-%
  amount and appearance of the sediment: clear
[2]; Ethanol + Macrogol 400 30 wt.-%
  amount and appearance of the sediment: clear
[2]; Ethanol + Polyglycol M350 10 wt.-%
  amount and appearance of the sediment: Minimal crystal-line sediment
[2]; Ethanol + Polyglycol M350 20 wt.-%
  amount and appearance of the sediment: clear
[2]; Ethanol + Polyglycol M350 30 wt.-%
  amount and appearance of the sediment: clear
[2]; Ethanol + Propylene glycol 10-30 wt.-%
  amount and appearance of the sediment: Minimal crystalline sediment, decrease of sediment with increase of amount of propylene glycol
[2]; Ethanol + Transcutol 10-30 wt.-%
  amount and appearance of the sediment: Minimal crystalline sediment, decrease of sediment with increase of amount of transcutol
[2]; Ethanol + Water 10-30 wt.-%
  amount and appearance of the sediment: Sediment (powdery/crystalline), no change observed by in-creasing amount of water
[2]; Ethyl acetate + Dimethylphthalate 10-30 wt.-%
  amount and appearance of the sediment: Crystalline sediment, better solubility than pure ethyl ace-tate
[2]; Ethyl acetate + Macrogol 400 10-30 wt.-%
  amount and appearance of the sediment: Crystalline sediment, minimal decrease of sediment with increase of amount of macrogol 400
[2]; Ethyl acetate + Polyglycol M350 10-30 wt.-%
  amount and appearance of the sediment: White, powdery sediment, no change observed by in-crease of amount of polyglycol M350
[2]; Ethyl acetate + Propylene glycol 10-20 wt.-%
  amount and appearance of the sediment: Decrease of crystalline sediment with increase of amount of propylene gly-col
[2]; Ethyl acetate + Propylene glycol 30 wt.-%
  amount and appearance of the sediment: Clear
[2]; Ethyl acetate + Transcutol 10-30 wt.-%
  amount and appearance of the sediment: Powdery/crystalline sediment, no change observed by in-crease of amount of transcutol
[2]; Ethyl acetate + Water 10-30 wt.-%
  amount and appearance of the sediment: Sediment (partially powdery white), increase of sediment with increasing amount of water
[2]; Isopropanol + Macrogol 400 10-30 wt.-%
  amount and appearance of the sediment: Crystalline sediment, no change observed by increasing amount of macrogol 400
[2]; Isopropanol + Polyglycol M350 10-30 wt.-%
  amount and appearance of the sediment: White sediment, clear decrease of sediment with increas-ing amount of polyglycol M350
[2]; Isopropanol + Propylene glycol 10-30 wt.-%
  amount and appearance of the sediment: Crystalline sediment, no change observed by increasing amount of propylene glycol
[2]; Isopropanol + Transcutol 10-30 wt.-%
  amount and appearance of the sediment: Crystalline sediment, no change observed by increasing amount of transcutol
[2]; Isopropanol + Water 10-30 wt.-%
  amount and appearance of the sediment: White powdery sediment, no change observed by increas-ing amount of water
[3]; 2 wt.-% in 98 wt.-% solvent, 24 h, room temperature, trend over water, butyl acetate, ethyl acetate, isopropanol, ethanol
  solubility: Increasing from water to ethanol
[3]; Ethanol
  appearance: Low, crystalline sediment
[3]; Water
  appearance: Not dissolved, powdery, white sediment
[3]; trend over water, butyl acetate, ethyl acetate, isopropanol, ethanol
  sediment: Decreasing from water to etanol
